In test [1] the target is Dual specificity protein kinase TTK (Homo sapiens) (UniProt P33981). Nature of the test: Binding affinity to wild-type human partial length TTK (N505 to V798 residues) expressed in bacterial expression system assessed as residual binding level at 10 uM by Kinomescan method relative to control.
Test [2] has as its system Phosphatidylinositol 4,5-bisphosphate 3-kinase catalytic subunit alpha isoform (Homo sapiens), P42336 [E545A]. The test can be described thus: Binding affinity to human partial length PIK3CA E545A mutant (R108 to N1068 residues) expressed in mammalian expression system assessed as residual binding level at 10 uM by Kinomescan method relative to control.
Test [3] has as its target Protein kinase C epsilon type (Homo sapiens) (UniProt Q02156). The test can be described thus: Binding affinity to wild-type human partial length PRKCE (A378 to P737 residues) expressed in mammalian expression system assessed as residual binding level at 10 uM by Kinomescan method relative to control.
In test [4] the target is Macrophage colony-stimulating factor 1 receptor (Homo sapiens) (UniProt P07333). Nature of the test: Binding affinity to wild-type human partial length autoinhibited CSF1R (Y538 to S939 residues) expressed in mammalian expression system assessed as residual binding level at 10 uM by Kinomescan method relative to control.
Test [5] deals with Ribosomal protein S6 kinase alpha-1 (Homo sapiens) (UniProt Q15418). The test can be described thus: Binding affinity to wild-type human partial length C-terminal RSK1 kinase domain 2 (P360 to L681 residues) expressed in bacterial expression system assessed as residual binding level at 10 uM by Kinomescan method relative to control.
For test [6], the target named is cGMP-dependent protein kinase 2 (Homo sapiens) (UniProt Q13237). Nature of the test: Binding affinity to wild-type human partial length PRKG2 (S422 to F762 residues) expressed in mammalian expression system assessed as residual binding level at 10 uM by Kinomescan method relative to control.
Test [7] has as its target SRSF protein kinase 3 (Homo sapiens) (UniProt Q9UPE1). Nature of the test: Binding affinity to wild-type human partial length SRPK3 (P41 to P567 residues) expressed in bacterial expression system assessed as residual binding level at 10 uM by Kinomescan method relative to control.
Test [8] has as its target Rhodopsin kinase GRK7 (Homo sapiens) (UniProt Q8WTQ7). The test can be described thus: Binding affinity to wild-type human full length GRK7 (M1 to L553 residues) expressed in mammalian expression system assessed as residual binding level at 10 uM by Kinomescan method relative to control.
In test [9] the target is Serine/threonine-protein kinase PAK 6 (Homo sapiens) (UniProt Q9NQU5). Nature of the test: Binding affinity to wild-type human partial length PAK6 (N298 to C681 residues) expressed in bacterial expression system assessed as residual binding level at 10 uM by Kinomescan method relative to control.
Test [10] relates to Tyrosine-protein kinase ABL1 (Homo sapiens), P00519 [H396P]. The test can be described thus: Binding affinity to human phosphorylated ABL1 H396P mutant (S229 to K512 residues) expressed in mammalian expression system assessed as residual binding level at 10 uM by Kinomescan method relative to control.
Test [11] addresses Serine/threonine-protein kinase MRCK alpha (Homo sapiens) (UniProt Q5VT25). The test can be described thus: Binding affinity to wild-type human partial length MRCKA (L57 to V418 residues) expressed in bacterial expression system assessed as residual binding level at 10 uM by Kinomescan method relative to control.
Test [12] has as its system Epidermal growth factor receptor (Homo sapiens), P00533 [G719S]. Nature of the test: Binding affinity to human partial length EGFR G719S mutant (R669 to V1011 residues) expressed in bacterial expression system assessed as residual binding level at 10 uM by Kinomescan method relative to control.
The target of test [13] is Misshapen-like kinase 1 (Homo sapiens) (UniProt Q8N4C8). Nature of the test: Binding affinity to wild-type human partial length MINK (M1 to K312 residues) expressed in mammalian expression system assessed as residual binding level at 10 uM by Kinomescan method relative to control.
The target in test [14] is Activin receptor type-2A (Homo sapiens) (UniProt P27037). The test can be described thus: Binding affinity to wild-type human ACVR2A (V171 to T499 residues) expressed in bacterial expression system assessed as residual binding level at 10 uM by Kinomescan method relative to control.
In test [15] the target is Mitogen-activated protein kinase kinase kinase 3 (Homo sapiens) (UniProt Q99759). Nature of the test: Binding affinity to wild-type human partial length MAP3K3 (E320 to Y626 residues) expressed in mammalian expression system assessed as residual binding level at 10 uM by Kinomescan method relative to control.
In test [16] the test system is Receptor-type tyrosine-protein kinase FLT3 (Homo sapiens), P36888 [D835V]. Nature of the test: Binding affinity to human partial length FLT3 D835V mutant (V592 to Y969 residues) expressed in bacterial expression system assessed as residual binding level at 10 uM by Kinomescan method relative to control.
The test system of test [17] is Epidermal growth factor receptor (Homo sapiens), P00533 [UNDEFINED MUTATION]. Nature of the test: Binding affinity to human partial length EGFR E746-A750del mutant expressed in bacterial expression system assessed as residual binding level at 10 uM by Kinomescan method relative to control.
Test [18] deals with Proto-oncogene tyrosine-protein kinase receptor Ret (Homo sapiens), P07949 [V804L]. The test can be described thus: Binding affinity to human partial length RET V804L mutant (E713 to D1014 residues) expressed in bacterial expression system assessed as residual binding level at 10 uM by Kinomescan method relative to control.
The target in test [19] is Interleukin-1 receptor-associated kinase 1 (Homo sapiens) (UniProt P51617). The test can be described thus: Binding affinity to wild-type human partial length IRAK1 (R194 to S712 residues) expressed in mammalian expression system assessed as residual binding level at 10 uM by Kinomescan method relative to control.
Test [20] addresses Macrophage-stimulating protein receptor (Homo sapiens) (UniProt Q04912). The test can be described thus: Binding affinity to wild-type human partial length MST1R (I1057 to L1363 residues) expressed in bacterial expression system assessed as residual binding level at 10 uM by Kinomescan method relative to control.
Test [21] deals with Receptor-interacting serine/threonine-protein kinase 2 (Homo sapiens) (UniProt O43353). Nature of the test: Binding affinity to wild-type human partial length RIPK2 (M1 to K310 residues) expressed in bacterial expression system assessed as residual binding level at 10 uM by Kinomescan method relative to control.
In test [22] the target is Cyclin-dependent kinase 15 (Homo sapiens) (UniProt Q96Q40). The test can be described thus: Binding affinity to wild-type human full length PFTAIRE2 (M1 to W384 residues) expressed in bacterial expression system assessed as residual binding level at 10 uM by Kinomescan method relative to control.
The subject of test [23] is Receptor-type tyrosine-protein kinase FLT3 (Homo sapiens), P36888 [UNDEFINED MUTATION]. The test can be described thus: Binding affinity to human partial length FLT3 ITD/F691L double mutant expressed in bacterial expression system assessed as residual binding level at 10 uM by Kinomescan method relative to control.
In another test the test system is NCI-H727. The test can be described thus: Cytotoxicity against human NCI-H727 cells assessed as growth inhibition incubated for 48 hrs by Hoechst 33342 staining based assay. It counts as cell-based. To be noted: NCI-H727, 48 h.

Sequence of Activin receptor type-2A (Homo sapiens) (P27037 whole entry, the tested form may be a part): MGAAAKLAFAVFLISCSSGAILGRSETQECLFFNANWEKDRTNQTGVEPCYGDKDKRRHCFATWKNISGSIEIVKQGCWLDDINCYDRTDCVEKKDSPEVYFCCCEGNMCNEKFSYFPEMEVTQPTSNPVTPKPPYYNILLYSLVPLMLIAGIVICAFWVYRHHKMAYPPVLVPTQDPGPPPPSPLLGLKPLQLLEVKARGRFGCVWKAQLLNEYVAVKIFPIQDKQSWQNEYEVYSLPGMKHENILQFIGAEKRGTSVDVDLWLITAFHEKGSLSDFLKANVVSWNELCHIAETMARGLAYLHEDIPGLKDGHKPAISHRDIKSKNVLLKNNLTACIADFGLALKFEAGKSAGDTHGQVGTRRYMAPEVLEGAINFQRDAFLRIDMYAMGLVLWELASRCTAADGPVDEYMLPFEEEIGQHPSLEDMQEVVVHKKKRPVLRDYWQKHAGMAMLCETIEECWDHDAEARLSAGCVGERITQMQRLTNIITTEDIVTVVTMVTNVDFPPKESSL
Sequence of SRSF protein kinase 3 (Homo sapiens) (Q9UPE1 whole entry, the tested form may be a part): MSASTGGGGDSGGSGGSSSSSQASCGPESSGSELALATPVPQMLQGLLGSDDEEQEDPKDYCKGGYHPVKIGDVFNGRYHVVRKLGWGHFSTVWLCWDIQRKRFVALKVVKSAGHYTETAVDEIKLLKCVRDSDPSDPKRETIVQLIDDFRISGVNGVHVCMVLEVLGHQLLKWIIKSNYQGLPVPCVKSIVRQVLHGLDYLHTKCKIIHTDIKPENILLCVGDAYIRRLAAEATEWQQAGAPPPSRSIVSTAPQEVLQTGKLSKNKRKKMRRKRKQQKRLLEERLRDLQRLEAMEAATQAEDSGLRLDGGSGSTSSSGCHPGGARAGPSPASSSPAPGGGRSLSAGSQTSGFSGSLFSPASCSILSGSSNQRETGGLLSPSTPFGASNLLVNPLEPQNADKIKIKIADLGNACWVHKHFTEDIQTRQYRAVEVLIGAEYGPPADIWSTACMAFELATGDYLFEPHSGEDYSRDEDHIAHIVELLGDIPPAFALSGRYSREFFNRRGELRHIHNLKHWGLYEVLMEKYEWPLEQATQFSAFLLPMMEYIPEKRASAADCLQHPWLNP
Sequence of Misshapen-like kinase 1 (Homo sapiens) (Q8N4C8 whole entry, looked up, the tested form may be a part): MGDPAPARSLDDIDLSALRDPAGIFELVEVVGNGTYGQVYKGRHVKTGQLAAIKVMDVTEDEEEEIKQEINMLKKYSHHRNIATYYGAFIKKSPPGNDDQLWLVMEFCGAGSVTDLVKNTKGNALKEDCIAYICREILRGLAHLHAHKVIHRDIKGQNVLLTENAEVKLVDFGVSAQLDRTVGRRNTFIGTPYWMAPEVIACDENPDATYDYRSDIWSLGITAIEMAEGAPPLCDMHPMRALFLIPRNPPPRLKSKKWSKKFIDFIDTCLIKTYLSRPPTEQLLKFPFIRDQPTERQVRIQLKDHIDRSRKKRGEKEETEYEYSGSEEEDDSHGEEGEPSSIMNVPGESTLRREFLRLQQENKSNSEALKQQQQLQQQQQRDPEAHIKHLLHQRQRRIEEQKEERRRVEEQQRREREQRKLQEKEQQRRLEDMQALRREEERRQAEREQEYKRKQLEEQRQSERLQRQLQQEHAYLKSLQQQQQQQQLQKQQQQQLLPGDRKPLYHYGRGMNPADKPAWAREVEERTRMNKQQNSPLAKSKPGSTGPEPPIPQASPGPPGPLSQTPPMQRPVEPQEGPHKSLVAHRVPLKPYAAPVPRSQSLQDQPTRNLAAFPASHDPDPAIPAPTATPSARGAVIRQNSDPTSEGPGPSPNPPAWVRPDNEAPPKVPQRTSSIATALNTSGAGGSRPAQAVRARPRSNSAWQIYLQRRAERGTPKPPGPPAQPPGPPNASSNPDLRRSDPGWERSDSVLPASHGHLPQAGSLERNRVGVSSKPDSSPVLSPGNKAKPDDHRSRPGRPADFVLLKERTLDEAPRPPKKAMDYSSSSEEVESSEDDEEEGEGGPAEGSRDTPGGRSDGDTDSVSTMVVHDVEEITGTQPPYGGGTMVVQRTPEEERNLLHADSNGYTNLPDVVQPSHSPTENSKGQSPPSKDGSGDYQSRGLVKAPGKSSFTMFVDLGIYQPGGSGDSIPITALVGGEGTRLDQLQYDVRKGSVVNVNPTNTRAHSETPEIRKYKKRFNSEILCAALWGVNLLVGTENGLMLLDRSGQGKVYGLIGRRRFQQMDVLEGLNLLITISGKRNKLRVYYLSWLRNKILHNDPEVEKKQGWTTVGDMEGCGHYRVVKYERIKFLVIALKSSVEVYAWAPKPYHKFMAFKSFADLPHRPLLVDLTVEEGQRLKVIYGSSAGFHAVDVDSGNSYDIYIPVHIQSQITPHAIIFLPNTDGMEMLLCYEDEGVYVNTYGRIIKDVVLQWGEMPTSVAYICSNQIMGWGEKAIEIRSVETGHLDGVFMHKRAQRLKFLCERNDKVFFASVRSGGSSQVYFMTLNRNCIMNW
Sequence of Proto-oncogene tyrosine-protein kinase receptor Ret (Homo sapiens), P07949 [V804L] (P07949 whole entry V804L, the tested form may be a part): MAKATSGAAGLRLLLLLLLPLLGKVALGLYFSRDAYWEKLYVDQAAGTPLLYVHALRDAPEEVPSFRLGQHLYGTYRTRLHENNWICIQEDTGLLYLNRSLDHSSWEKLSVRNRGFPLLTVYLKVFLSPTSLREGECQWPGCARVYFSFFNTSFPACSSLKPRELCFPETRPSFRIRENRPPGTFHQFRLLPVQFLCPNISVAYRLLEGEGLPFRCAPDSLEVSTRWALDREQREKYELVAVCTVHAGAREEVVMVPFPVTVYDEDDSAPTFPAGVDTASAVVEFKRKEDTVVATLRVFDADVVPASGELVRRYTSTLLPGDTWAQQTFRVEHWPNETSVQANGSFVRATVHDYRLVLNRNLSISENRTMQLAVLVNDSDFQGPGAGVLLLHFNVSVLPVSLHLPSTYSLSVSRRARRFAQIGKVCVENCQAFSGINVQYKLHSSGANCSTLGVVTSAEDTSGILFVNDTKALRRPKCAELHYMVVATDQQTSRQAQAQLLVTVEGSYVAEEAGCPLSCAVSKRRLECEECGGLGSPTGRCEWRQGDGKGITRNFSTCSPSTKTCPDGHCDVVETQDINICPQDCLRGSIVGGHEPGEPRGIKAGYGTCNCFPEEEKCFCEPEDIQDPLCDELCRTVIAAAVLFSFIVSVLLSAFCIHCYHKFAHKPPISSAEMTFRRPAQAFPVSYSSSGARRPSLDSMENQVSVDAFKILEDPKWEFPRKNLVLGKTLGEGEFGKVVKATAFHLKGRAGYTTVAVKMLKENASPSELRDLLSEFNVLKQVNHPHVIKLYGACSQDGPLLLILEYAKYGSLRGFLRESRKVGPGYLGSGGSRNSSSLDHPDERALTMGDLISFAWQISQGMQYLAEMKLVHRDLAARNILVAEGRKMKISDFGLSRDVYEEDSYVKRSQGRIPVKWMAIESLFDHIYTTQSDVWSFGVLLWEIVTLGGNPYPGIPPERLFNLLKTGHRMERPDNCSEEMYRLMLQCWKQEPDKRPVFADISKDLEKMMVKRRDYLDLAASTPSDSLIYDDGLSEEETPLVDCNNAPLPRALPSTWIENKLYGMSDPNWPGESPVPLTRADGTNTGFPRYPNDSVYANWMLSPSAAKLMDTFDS
Sequence of Ribosomal protein S6 kinase alpha-1 (Homo sapiens) (Q15418 whole entry, the tested form may be a part): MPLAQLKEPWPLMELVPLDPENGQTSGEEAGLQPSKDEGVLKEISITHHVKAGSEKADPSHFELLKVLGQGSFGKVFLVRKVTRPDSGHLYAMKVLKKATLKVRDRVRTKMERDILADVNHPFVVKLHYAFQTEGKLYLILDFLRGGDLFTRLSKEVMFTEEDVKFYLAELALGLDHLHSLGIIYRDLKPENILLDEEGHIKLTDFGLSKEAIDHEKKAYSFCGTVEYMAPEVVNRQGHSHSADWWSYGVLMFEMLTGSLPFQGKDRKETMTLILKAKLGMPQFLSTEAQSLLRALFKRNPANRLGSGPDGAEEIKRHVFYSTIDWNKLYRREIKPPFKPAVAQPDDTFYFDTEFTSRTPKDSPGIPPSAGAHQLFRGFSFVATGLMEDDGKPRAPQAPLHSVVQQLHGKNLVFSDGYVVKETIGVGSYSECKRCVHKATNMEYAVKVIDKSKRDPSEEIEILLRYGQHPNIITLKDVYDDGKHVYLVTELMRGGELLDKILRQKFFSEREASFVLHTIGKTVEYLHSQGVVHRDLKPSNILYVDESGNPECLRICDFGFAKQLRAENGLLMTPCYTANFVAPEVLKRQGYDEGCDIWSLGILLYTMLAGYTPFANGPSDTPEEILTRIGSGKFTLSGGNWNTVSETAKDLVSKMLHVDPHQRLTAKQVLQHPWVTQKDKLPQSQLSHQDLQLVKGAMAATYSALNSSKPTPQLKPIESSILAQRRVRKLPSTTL
Sequence of Receptor-interacting serine/threonine-protein kinase 2 (Homo sapiens) (O43353 whole entry, the tested form may be a part): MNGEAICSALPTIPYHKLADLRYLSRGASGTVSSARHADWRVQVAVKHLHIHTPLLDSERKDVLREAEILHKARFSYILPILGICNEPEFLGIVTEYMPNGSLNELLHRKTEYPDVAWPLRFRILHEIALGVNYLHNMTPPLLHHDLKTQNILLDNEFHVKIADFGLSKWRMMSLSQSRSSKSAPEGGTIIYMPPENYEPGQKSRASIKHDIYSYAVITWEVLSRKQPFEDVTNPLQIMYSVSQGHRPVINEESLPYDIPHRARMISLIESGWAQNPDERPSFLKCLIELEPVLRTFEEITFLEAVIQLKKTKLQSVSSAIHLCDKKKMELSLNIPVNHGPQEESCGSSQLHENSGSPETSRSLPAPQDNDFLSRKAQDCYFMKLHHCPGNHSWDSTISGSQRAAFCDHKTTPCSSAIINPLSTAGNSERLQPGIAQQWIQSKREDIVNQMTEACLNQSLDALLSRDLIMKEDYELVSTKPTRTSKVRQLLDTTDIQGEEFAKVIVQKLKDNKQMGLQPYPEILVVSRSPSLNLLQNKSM

The term IC50 denotes the point on the concentration scale where inhibition reaches its midpoint. Consider `O=C(Nc1cc(-c2cn(CCNc3c4c(nc5ccccc35)CCCC4)nn2)ccn1)Nc1cccc2c1C1CCCCN1C2=O` (racemic), for which the Activity in test [1] stood at 9.9%; in test [2], 72%; in test [3] it was 100%; in [4], 0.54%; in test [5] it was 53%; in test [6], 4.4%. The Activity came out at 15% in test [7]; 61% in [8]; 66% in test [9]; 0.5% in test [10]; 97% in [11]; 94% in test [12]. Further, the Activity in [13] came to 28%; in test [14], 100%; in test [15] it was 22%; in [16], 0.04%; in [17] it was 79%; in test [18] it was 16%. Besides, the Activity turned out to be 8.7% in test [19]; 89% in test [20]; 66% in test [21]; 11% in [22]; 0.25% in test [23]. For the same molecule, the half-maximal inhibitory concentration (IC50) in the test with NCI-H727 was found to be 2000 nM.

For the origin of these results see ChEMBL document CHEMBL4390652, “Design, biological evaluation and X-ray crystallography of nanomolar multifunctional ligands targeting simultaneously acetylcholinesterase and glycogen synthase kinase-3” (Eur J Med Chem, 2019).
